The values below come from patent US6596854B2, “Isolated nucleic acid molecule encoding a variant human eukaryotic Intiation Factor 4E protein” (Emory University, priority 1996, dated 2003).

“Also recorded” adds a separate entry of the source.

One data set has as its target T1, eIF-4E (Homo sapiens, UniProt P06730).
T1 construct: made in house; host or cells: E. coli BL21(DE3), pET-3d
Put plainly: Photoaffinity labeling of eIF-4E with labeled GTP analog. The data set is classed as binding. The conditions noted are these: competition and saturation. The source says: Studies on the binding site of eIF-4E have defined a sequence of amino acids, involved in binding m^7G-RNA extending approximately from positions 112-123, numbering from the translation start site. The region of amino acids involved in the binding of eIF-4E to m^7G-RNA was identified using photoaffinity labeling with a labeled analog, [γ-^32P] 8-N3GTP. [Jayaram, B. et al. (1994) J. Biol. Chem. 269:3233-3242; Shoemaker, M. T. et al. (1993) J. Biol. Chem. 32:1883-1890; Salvucci, M. E. et al. (1992) Biochemistry 31:4479-4487]. […] The analog binding to eIF-4E was rendered irreversible by a photo-chemical reaction and a tryptic peptide bearing the analog label was isolated by aluminum-III chelate chromatography and reverse phase HPLC. Once the binding region peptide was identified, it was then possible to employ alanine-scanning mutations to determine the contribution of specific amino acid residues to the binding, and to generate modified eIF-4E proteins with altered binding affinities. Modified eIF-4E analog proteins having either increased or decreased binding affinities have been made. […] Enhanced binding affinity can lead to increased capped RNA stability and increased duration of expression. Decreased binding affinity can be of value where sensitivity to regulatory influences is desired. […]

For data set [1], the system named is translation of globin mRNA. Put plainly: Cell-free translation in eIF-4E-depleted rabbit reticulocyte lysates. The class given is biochemical. The procedure:
Translational activity of eIF-4E variants: The ability of eIF-4E variants to initiate translation was examined in rabbit reticulocyte lysates which were depleted of endogenous eIF-4E by m^7GTP-Sepharose chromatography [Svitkin Y. V. et al. (1996) EMBO J. 15:7147-7155]. Western blotting analysis using anti-eIF-4E antibodies detected no eIF-4E in lysates after chromatography. […] The relative abilities of eIF-4E variants to restore globin mRNA translation were tested for all variants except W113A.
Cell-free translations: Nuclease-treated rabbit reticulocyte lysates (Promega) were depleted of endogenous eIF-4E by chromatography on m^7GTP-Sepharose according to the previously described protocol (Svitkin et al. 1996, supra). Aliquots of eIF-4E-depleted lysates were stored in liquid nitrogen vapor. eIF-4E depletion was verified by Western blotting analysis (data not shown). Cell-free translations were performed at 30° C. as described in detail in the Promega technical manual. […] In the case of L117A, which was not highly purified, a sufficient quantity of the preparation was added to approximate 75 ng of L117A. […] Dried filter papers were placed in vials with scintillation liquid and [^35S]methionine incorporated into protein was quantitated by liquid scintillation spectrometry.

The target in data set [2] is m^7GTP (mRNA cap structure). Put plainly: Fluorescence quenching of intrinsic tryptophan of eIF-4E upon m^7GTP binding. How it is done: FIGS. 4A and 4B. […] The fluorescence intensity of recombinant human eIF-4E binding to m^7GTP as a function of m^7GTP concentration was measured. All solutions were prepared in buffer A at pH 7.6, 25° C. and the concentration of eIF-4E was 1 μM. An excitation wave length of 280 nm was used to monitor the fluorescence intensity at 330 nm.
Fluorescence measurements were made at 25° C. on a SPEX Fluorolog-T2 spectrofluorometer equipped with a high intensity (450 w) xenon arc lamp. An excitation wave length of 280 nm was used to monitor the tryptophan fluorescence emission of recombinant eIF-4E at 330 nm. Excitation and emission slit widths of 1.4 and 2.0 mm respectively were used and a 1.0 cm sample cell pathlength was employed. The buffer used for all fluorescence measurements was 20 mM HEPES at pH 7.6 and 1 mM DTT (designated Buffer A in FIG. 4). The steady state data were collected and analyzed as described previously [Carberry, S. E. et al. (1989) Biochemistry 28:8078-8083; Carberry, S. E. et al. (1990) Biochemistry 29:3337-3341. An excitation wavelength of 289 nm was used to monitor the tryptophan fluorescence emission of the proteins. Excitation and emission slit widths of 1.5 mm and 2.0 mm respectively were used and cell path length was 1.0 cm.
The preparation of large quantities of recombinant eIF-4E variants allowed us to directly determine the Kd of binding to the mRNA cap structure. Quantitation was performed by measuring the fluorescence quenching of intrinsic tryptophan residues in eIF-4E upon m^7GTP binding at 25≅ C. (Example 3). […] This is possibly a consequence of a lower stability of these variants at the higher temperature in the fluorescence quenching assay.

The format of data set [3] is physicochemical, E. coli. The procedure:
Purification was carried out essentially as described by Hagedorn, et al. (1997) Protein Expression and Purif. 9:53-60, which is incorporated herein by reference. BL21(DE3) cells expressing human eIF-4E were grown in M9ZB media with ampicillin to an OD600 of 0.6-0.7 at which time cultures were induced with 0.4 mM IPTG [Studier, F. W. et al. (1990) supra]. […] Culture media was centrifuged at 500×g for 15 min, and E. coli pellets were suspended in 3 ml of 50 mM Tris-HCl pH 8.0, 100 mM KCl, 1 mM EDTA, 1 mM DTT, 1 mM PMSF, and 0.1 mg/ml lysozyme per gram wet weight. Samples were stirred intermittently on ice for 15 min and sonicated. Triton X-100 was added to a final concentration of 0.1%. The samples were mixed for 15 min at 4° C. and centrifuged at 15,000 rpm in a Sorvall SS-34 rotor for 20 min. Supernatants were used as starting material for subsequent chromatography purification steps.
In order to assess the solubility of each variant, cells were lysed and centrifuged as described supra. Supernatants prepared from equivalent wet weights of cells were analyzed by SDS-PAGE and Western blotting with anti-eIF-4E antibodies. Supernatants from all variants contained soluble eIF-4E. […] Except for the W113A and L117A variants, no major differences in solubility were observed among the other alanine variants studied.

T1 sequence (P06730 whole entry): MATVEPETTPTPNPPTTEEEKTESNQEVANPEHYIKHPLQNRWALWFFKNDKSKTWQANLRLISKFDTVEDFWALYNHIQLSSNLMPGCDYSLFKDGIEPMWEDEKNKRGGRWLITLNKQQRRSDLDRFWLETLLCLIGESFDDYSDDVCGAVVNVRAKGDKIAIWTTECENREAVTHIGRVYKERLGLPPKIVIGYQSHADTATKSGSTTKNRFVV

Regarding `[N-]=[N+]=Nc1nc2c(=O)[nH]c(N)nc2n1C1OC(COP(=O)(O)OP(=O)(O)O[32P](=O)(O)O)C(O)C1O` (centres unmarked) [[γ-^32P] 8-N3GTP], the “binding of analog to eIF-4E” value on eIF-4E was “bind to eIF-4E in competition with m^7GTP and with capped RNA; also recorded: the binding site was saturated by the analog”.

With `Cn1c[n+]([C@@H]2O[C@H](COP(=O)(O)OP(=O)([O-])O)[C@@H](O)[C@H]2O)c2nc(N)[nH]c(=O)c21` [m^7GDP, reference compound], in data set [1] (added to incubation containing wild-type eIF-4E), the “effect on eIF-4E-dependent translation” value is on record as “inhibited the eIF-4E-dependent translation”.

For “wild-type eIF-4E: purified recombinant human eukaryotic Initiation Factor 4E expressed in E. coli, non-phosphorylated”, the Kd (in general, the equilibrium constant for the complex coming apart) in data set [2] (Kd for m^7GTP, fluorescence quenching, 25 C, read-out: Binding constant Kd) came out at 140 nM. For the same compound, in data set [2] (binding to m^7GTP, pH 7.6 (20 mM HEPES buffer+1 mM DTT), 25° C.), the equilibrium binding constant is recorded as 10.1±0.3 ×10^5M^−1. Also, the “equilibrium binding constant relative to results obtained using native human eIF-4E” value in data set [2] (compared with Carberry 1989) is 1.5-2 times higher. Moreover, the binding constant in data set [2] (in vitro, worded as binding to m^7G-RNA) was 10.1±0.3 ×10^5M^−1. The “increase in the translation of globin mRNA” value in data set [1] (addition to eIF-4E-depleted lysate) was 2-4 fold. Besides, in data set [3], the “fraction of eIF-4E expressed in E. coli that was soluble” value is “Note: Approximately 1-5% of the eIF-4E expressed in E. coli was soluble as estimated by Coomassie blue staining of SDS-PAGE analyzed samples”.
